Assay results as given in patent publication US20100099561A1, “HETEROBICYCLIC ALKYLTHIO-BRIDGED ISOXAZOLINES” (E.I. DU PONT DE NEMOURS AND COMPANY, priority 2008, published 2010).

Key:
Format in all cases: in vivo
[1] = tested on: barnyardgrass (Echinochloa crus-galli); assay: Test A postemergence, barnyardgrass; details: 0 to 100 scale (0 no effect, 100 complete control)
Text: (§1) Seeds of barnyardgrass (Echinochloa crus-galli), large crabgrass (Digitaria sanguinalis), giant foxtail (Setaria faberi), morningglory (Ipomoea spp.), pigweed (Amaranthus retroflexus), velvetleaf (Abutilon theophrasti), wheat (Triticum aestivum), and corn (Zea mays) were planted into a blend of loam soil and sand and treated preemergence with a directed soil spray using test chemicals formulated in a non-phytotoxic solvent mixture which included a surfactant. At the same time these species were also treated with postemergence applications of test compounds formulated in the same manner. Plants ranged in height from two to ten cm and were in the one- to two-leaf stage for the postemergence treatment. Treated plants and untreated controls were maintained in a greenhouse for approximately ten days, after which time all treated plants were compared to untreated controls and visually evaluated for injury. Plant response ratings, summarized in Table A, are based on a 0 to 100 scale where 0 is no effect and 100 is complete control. A dash (-) response means no test result.

[2] = tested on: giant foxtail (Setaria faberi); assay: Test A preemergence, giant foxtail; details: 0 to 100 scale (0 no effect, 100 complete control)
Text: as §1

rice (Oryza sativa) = assay: Test B flooded paddy test, rice; details: Flood, scale 0 to 100
Text: (§2) Plant species in the flooded paddy test consisted of rice (Oryza sativa), umbrella sedge (Cyperus difformis), ducksalad (Heteranthera limosa) and barnyardgrass (Echinochloa crus-galli) grown to the 2-leaf stage for testing. At time of treatment, test pots were flooded to 3 cm above the soil surface, treated by application of test compounds directly to the paddy water, and then maintained at that water depth for the duration of the test. Treated plants and controls were maintained in a greenhouse for 13 to 15 days, after which time all species were compared to controls and visually evaluated. Plant response ratings, summarized in Table B, are based on a scale of 0 to 100 where 0 is no effect and 100 is complete control. A dash (-) response means no test result.

[3] = tested on: pigweed (Amaranthus retroflexus); assay: Test A preemergence, pigweed; details: 0 to 100 scale (0 no effect, 100 complete control)
Text: as §1

[4] = tested on: ducksalad (Heteranthera limosa); assay: Test B flooded paddy test, ducksalad; details: Flood, scale 0 to 100
Text: as §2

[5] = tested on: velvetleaf (Abutilon theophrasti); assay: Test A preemergence, velvetleaf; details: 0 to 100 scale (0 no effect, 100 complete control)
Text: as §1

corn (Zea mays) [6] = assay: Test A postemergence, corn; details: 0 to 100 scale (0 no effect, 100 complete control)
Text: as §1

[7] = tested on: morningglory (Ipomoea spp.); assay: Test A preemergence, morningglory; details: 0 to 100 scale (0 no effect, 100 complete control)
Text: as §1

[8] = tested on: morningglory (Ipomoea spp.); assay: Test A postemergence, morningglory; details: 0 to 100 scale (0 no effect, 100 complete control)
Text: as §1

[9] = tested on: umbrella sedge (Cyperus difformis); assay: Test B flooded paddy test, umbrella sedge; details: Flood, scale 0 to 100
Text: as §2

[10] = tested on: barnyardgrass (Echinochloa crus-galli); assay: Test B flooded paddy test, barnyardgrass; details: Flood
Text: as §2

[11] = tested on: large crabgrass (Digitaria sanguinalis); assay: Test A preemergence, large crabgrass; details: 0 to 100 scale (0 no effect, 100 complete control)
Text: as §1

[12] = tested on: wheat (Triticum aestivum); assay: Test A preemergence, wheat; details: 0 to 100 scale (0 no effect, 100 complete control)
Text: as §1

[13] = tested on: pigweed (Amaranthus retroflexus); assay: Test A postemergence, pigweed; details: 0 to 100 scale (0 no effect, 100 complete control)
Text: as §1

[14] = tested on: giant foxtail (Setaria faberi); assay: Test A postemergence, giant foxtail; details: 0 to 100 scale (0 no effect, 100 complete control)
Text: as §1

corn (Zea mays) [15] = assay: Test A preemergence, corn; details: 0 to 100 scale (0 no effect, 100 complete control)
Text: as §1

[16] = tested on: barnyardgrass (Echinochloa crus-galli); assay: Test A preemergence, barnyardgrass; details: 0 to 100 scale (0 no effect, 100 complete control)
Text: as §1

[17] = tested on: velvetleaf (Abutilon theophrasti); assay: Test A postemergence, velvetleaf; details: 0 to 100 scale (0 no effect, 100 complete control)
Text: as §1

[18] = tested on: wheat (Triticum aestivum); assay: Test A postemergence, wheat; details: 0 to 100 scale (0 no effect, 100 complete control)
Text: as §1

[19] = tested on: large crabgrass (Digitaria sanguinalis); assay: Test A postemergence, large crabgrass; details: 0 to 100 scale (0 no effect, 100 complete control)
Text: as §1

SMILES: CC1(C)CC(S(=O)(=O)Cc2c(C(F)(F)F)nc3cnccn3c2=O)=NO1 [Compound 52]
- Plant response rating, Barnyardgrass ([1]; 125 g ai/ha): 30
- Plant response rating, Barnyardgrass ([1]; 500 g ai/ha): 90
- Plant response rating, Foxtail, Giant ([2]; 125 g ai/ha): 40
- Plant response rating, Foxtail, Giant ([2]; 500 g ai/ha): 90
- Plant response rating, Rice (rice (Oryza sativa); 62 g ai/ha): 0
- Plant response rating, Rice (rice (Oryza sativa); 250 g ai/ha): 0
- Plant response rating, Pigweed ([3]; 125 g ai/ha): 0
- Plant response rating, Pigweed ([3]; 500 g ai/ha): 0
- Plant response rating, Ducksalad ([4]; 62 g ai/ha): 0
- Plant response rating, Ducksalad ([4]; 250 g ai/ha): 0
- Plant response rating, Velvetleaf ([5]; 125 g ai/ha): 0
- Plant response rating, Velvetleaf ([5]; 500 g ai/ha): 0
- Plant response rating, Corn (corn (Zea mays) [6]; 125 g ai/ha): 0
- Plant response rating, Corn (corn (Zea mays) [6]; 500 g ai/ha): 0
- Plant response rating, Morningglory ([7]; 125 g ai/ha): 0
- Plant response rating, Morningglory ([7]; 500 g ai/ha): 0
- Plant response rating, Morningglory ([8]; 125 g ai/ha): 0
- Plant response rating, Morningglory ([8]; 500 g ai/ha): 30
- Plant response rating, Sedge, Umbrella ([9]; 62 g ai/ha): 0
- Plant response rating, Sedge, Umbrella ([9]; 250 g ai/ha): 0
- Plant response rating, Barnyardgrass ([10]; 62 g ai/ha, scale 0 to 100): 0
- Plant response rating, Barnyardgrass ([10]; 250 g ai/ha, scale 0 to 100 (0 no effect, 100 complete control)): 0
- Plant response rating, Crabgrass, Large ([11]; 125 g ai/ha): 20
- Plant response rating, Crabgrass, Large ([11]; 500 g ai/ha): 80
- Plant response rating, Wheat ([12]; 125 g ai/ha): 0
- Plant response rating, Wheat ([12]; 500 g ai/ha): 0
- Plant response rating, Pigweed ([13]; 125 g ai/ha): 0
- Plant response rating, Pigweed ([13]; 500 g ai/ha): 0
- Plant response rating, Foxtail, Giant ([14]; 125 g ai/ha): 60
- Plant response rating, Foxtail, Giant ([14]; 500 g ai/ha): 80
- Plant response rating, Corn (corn (Zea mays) [15]; 125 g ai/ha): 0
- Plant response rating, Corn (corn (Zea mays) [15]; 500 g ai/ha): 0
- Plant response rating, Barnyardgrass ([16]; 125 g ai/ha): 20
- Plant response rating, Barnyardgrass ([16]; 500 g ai/ha): 80
- Plant response rating, Velvetleaf ([17]; 125 g ai/ha): 0
- Plant response rating, Velvetleaf ([17]; 500 g ai/ha): 0
- Plant response rating, Wheat ([18]; 125 g ai/ha): 0
- Plant response rating, Wheat ([18]; 500 g ai/ha): 30
- Plant response rating, Crabgrass, Large ([19]; 125 g ai/ha): 20
- Plant response rating, Crabgrass, Large ([19]; 500 g ai/ha): 50

SMILES: CC1(C)CC(SCc2c(C(F)(F)F)nc3n(c2=O)CCC3)=NO1 [Compound 9, 3-[[(4,5-dihydro-5,5-dimethyl-3-isoxazolyl)thio]methyl]-7,8-dihydro-2-(trifluoromethyl)pyrrolo[1,2-α]pyrimidin-4(6H)-one]
- Plant response rating, Barnyardgrass ([1]; 1000 g ai/ha): 0
- Plant response rating, Foxtail, Giant ([2]; 1000 g ai/ha): 0
- Plant response rating, Pigweed ([3]; 1000 g ai/ha): 0
- Plant response rating, Velvetleaf ([5]; 1000 g ai/ha): 0
- Plant response rating, Corn (corn (Zea mays) [6]; 1000 g ai/ha): 0
- Plant response rating, Morningglory ([7]; 1000 g ai/ha): 0
- Plant response rating, Morningglory ([8]; 1000 g ai/ha): 30
- Plant response rating, Crabgrass, Large ([11]; 1000 g ai/ha): 0
- Plant response rating, Wheat ([12]; 1000 g ai/ha): 0
- Plant response rating, Pigweed ([13]; 1000 g ai/ha): 10
- Plant response rating, Foxtail, Giant ([14]; 1000 g ai/ha): 0
- Plant response rating, Corn (corn (Zea mays) [15]; 1000 g ai/ha): 0
- Plant response rating, Barnyardgrass ([16]; 1000 g ai/ha): 0
- Plant response rating, Velvetleaf ([17]; 1000 g ai/ha): 10
- Plant response rating, Wheat ([18]; 1000 g ai/ha): 0
- Plant response rating, Crabgrass, Large ([19]; 1000 g ai/ha): 0
